Measured values: patent publication US20250115571A1, “OXOPIPERAZINE DERIVATIVES” (Inthera Bioscience AG, priority 2017, published 2025)

Key:
[1] = system: SiHa human HPV16-positive cervical cancer cells; assay: Cell-derived xenograft mouse model for cervical cancer (SiHa CDX); format: in vivo; details: p.o.; for Tumor Size day 37: SiHa CDX, female BALB/c nude mice, Mean ± SEM; for T/C: day 37, tumor-to-control ratio (volume/volume)
Method: (§1) Female BALB/c nude mice (7-9 weeks of age) were injected with SiHa human HPV16-positive (Human Papillomavirus type 16) cervical cancer cells. The cells were inoculated subcutaneously into the left flank of 48 mice. When tumors reached a mean volume of approximately 111 mm^3, mice were randomly assigned to eight treatment groups of each six mice (TABLE 18). Body weights were measured three times weekly prior to the initiation of dosing and daily thereafter. Tumor burden was assessed by caliper measurement twice weekly. Dosing breaks were applied when tolerability issues arose (body weight loss>10%). The study was terminated four weeks post first dosing. The experiment was performed in the Crown Bioscience Ltd. (Beijing) testing facility (Ground Floor, Light Muller Building, Changping Sector of Zhongguancun Scientific Park, No. 21 Huoju Road, Changping District, Beijing, CHIN).

[2] = system: MKN45 human gastric adenocarcinoma cells; assay: Cell-derived xenograft mouse model for gastric cancer (MKN45 CDX); format: in vivo; details: 12 mg/kg, QW, i.v.
Method: as §1, with “(8-9” for “(7-9”, “MKN45” for “SiHa”, “gastric adenocarcinoma” for “HPV16-positive (Human Papillomavirus type 16) cervical cancer”, “103” for “111”, “16).” for “18).”, “CHN).” for “CHIN).”

[3] = system: HPV-positive head-and-neck squamous cell carcinoma model #HN11303; assay: Patient-derived xenograft mouse model for head-and-neck squamous cell carcinoma (HN11303); format: in vivo; details: for mean TV: subcutaneous HPV-positive HNSCC model, female NMRI nu/nu mice; for mice tumor-free at the end of the observation period: HN11303 PDX, variable dosages (TABLE 23), all sixteen mice of the two groups
Method: Female NMRI nu/nu mice were injected with cells derived from a human head-and-neck cancer (model #HN11303, an HPV-positive head-and-neck squamous cell carcinoma, EPO-GmbH, Berlin, Germany). The cells were inoculated subcutaneously into the left flank of 40 mice. Thirteen days later tumors reached a mean volume of approximately 107 mm^3, and mice were randomly assigned to five treatment groups of each eight mice (TABLE 23). Body weights were measured twice weekly. Tumor burden was assessed by caliper measurement twice weekly. Dosing breaks were applied when tolerability issues arose (body weight loss>10). The study was terminated five weeks post first dosing. The experiment was performed in the EPO animal testing facility (Experimental Pharmacology and Oncology GmbH, 13125 Berlin-Buch, Germany).

[4] = system: HPV-positive head-and-neck squamous cell carcinoma model #HN10309; assay: Patient-derived xenograft mouse model for head-and-neck squamous cell carcinoma (HN10309); format: in vivo; details: p.o. BID, 30 mg/kg, female NMRI nu/nu mice
Method: Female NMRI nu/nu mice were injected with cells derived from a human head-and-neck cancer (model #HN10309, an HPV-positive head-and-neck squamous cell carcinoma, EPO-GmbH, Berlin, Germany). The cells were inoculated subcutaneously into the left flank of 24 mice. Thirty-three days later tumors reached a mean volume of approximately 116 mm^3, and mice were randomly assigned to three treatment groups of each eight mice (TABLE 21). Body weights were measured twice weekly. Tumor burden was assessed by caliper measurement twice weekly. Dosing breaks were applied when tolerability issues arose (body weight loss>[…]). The study was terminated four weeks post first dosing. The experiment was performed in the EPO animal testing facility (Experimental Pharmacology and Oncology GmbH, 13125 Berlin-Buch, Germany).

[5] = system: patient-derived castration-resistant prostate tumor cells (model #PR6511); assay: Castration resistant prostate cancer patient-derived xenograft (CRPC PDX); format: in vivo, mouse
Method: NSG NOD.Cg-PrkdcscidIj2rgtm1Wjl/SzJ mice (6-8 weeks of age) were injected with patient-derived castration-resistant prostate tumor cells (model #PR6511, Crown Bioscience UK Ltd Hillcrest, Osgathorpe Leicestershire, UK). The cells were inoculated subcutaneously into the left flank of 40 male NSG mice. When tumors reached a mean volume of approximately 100 mm^3 (i.e. 100 mm^3+/−54 mm^3, FIG. 3), mice were randomly assigned to five treatment groups of each eight mice (TABLE 9). Body weights were measured three times weekly prior to the initiation of dosing and daily thereafter. Tumor burden was assessed by caliper measurement three times weekly. Dosing breaks were applied when tolerability issues arose (body weight loss>10). Upon completion of the scheduled dosing phase at day 57, tumor outgrowth was monitored for groups 3, 4 and […] up to study day 77. Groups 1 and 2 were terminated on study day 57. Results of the experiment are shown in TABLES 10 and 11; and FIGS. 3 and 4. The experiment was performed in the Crown Bioscience Ltd. testing facility (Crown Bioscience UK Ltd Hillcrest, Dodgeford Lane, Osgathorpe Leicestershire LE12 9TE, UK).

[6] = p.o. QD, 30 mg/kg, groups of eight mice
[7] = 1 mg/kg, BID, listed as Compound 248

SMILES	Tumor Size day 37 ([1]; 3 mg/kg, BID) [mm^3]	T/C ([1]; 3 mg/kg, BID) [%]	mean TV ([3]; day 13) [cm^3]	mean TV ([3]; day 15) [cm^3]	mean TV ([3]; day 18) [cm^3]	mean TV ([3]; day 21) [cm^3]	mean TV ([3]; day 25) [cm^3]	mean TV ([3]; day 29) [cm^3]	mean TV ([3]; day 33) [cm^3]	mean TV ([3]; day 36) [cm^3]	mean TV ([4]; Day 33) [cm^3]	mean TV ([4]; Day 35) [cm^3]	mean TV ([4]; Day 38) [cm^3]	mean TV ([4]; Day 41) [cm^3]	mean TV ([4]; Day 45) [cm^3]	mean TV ([4]; Day 49) [cm^3]	mean TV ([4]; Day 53) [cm^3]	mean TV ([4]; Day 56) [cm^3]	mice tumor-free at the end of the observation period [3]	further results
CC(C)C[C@@H]1NCCN([C@@H](CC(C)C)C(=O)N2CCC3(C[C@@H]2C)OCC(CN2CCC2)CO3)C1=O (stereo partly drawn) [Compound 318, (S)-1-[(S)-1-({(S)-3-[(1-Azetidinyl)methyl]-8-methyl-1,5-dioxa-9-aza-9-spiro[5.5]undecyl}car-bonyl)-3-methylbutyl]-3-isobutyl-2-piperazinone]	351 ± 68	37.5																		
CC(=O)O[C@H]1C(=O)[C@@]2(C)[C@H]([C@H](OC(=O)c3ccccc3)[C@]3(O)C[C@H](OC(=O)[C@H](O)[C@@H](NC(=O)c4ccccc4)c4ccccc4)C(C)=C1C3(C)C)[C@]1(OC(C)=O)CO[C@@H]1C[C@@H]2O [Paclitaxel, paclitaxel, reference compound]																				Tumor Size day 29 ([2]; MKN45 CDX, female BALB/c nude mice, Mean ± SEM): 554.9 ± 52.8 mm^3; T/C ([2]; day 29, tumor-to-control ratio (volume/volume)): 46.6%
CC(C)C[C@@H]1NCCN([C@@H](CC(C)C)C(=O)N2CCC(CCN3CCC4(CC3)CC4)CC2)C1=O [Compound 282, (S)-1-[(S)-1-[(4-{2-(6-Aza-6-spiro[2.5]octyl)eth-yl}-1-piperidyl)carbonyl]-3-methylbutyl]-3-isobutyl-2-piperazinone]			0.1073	0.1061	0.1040	0.0971	0.1111	0.1030	0.1273	0.1185	0.1161	0.1308	0.1751	0.2086	0.3560	0.4920	0.6364	0.6558		
CC(C)C[C@H]1C(=O)N([C@@H](CC(C)C)C(=O)N2CCC3(C[C@@H]2C)OCC(CN2CCCC2)CO3)CCN1C (stereo partly drawn) [Compound 273, (S)-1-[(S)-1-({(S)-8-Methyl-3-[(1-pyrrolidinyl)methyl]-1,5-dioxa-9-aza-9-spiro[5.5]un-decyl}carbonyl)-3-methylbutyl]-3-isobutyl-4-methyl-2-piperazinone]	942.0 ± 114.9	79.3	0.1063	0.1073	0.0948	0.0875	0.0451	0.0194	0.0056	0.0031									tumor-free	
CNC(=O)c1ccc(N2C(=S)N(c3ccc(C#N)c(C(F)(F)F)c3)C(=O)C2(C)C)cc1F [Enzalutamide, enzalutamide, reference compound]																				TWO-WAY ANOVA p (tumor size at the end of the study) vs. Vehicle ([5]; 30 mg/kg p.o. QD, n.s. = not significant): n.s.; CR (complete regression) = number of mice [5, 6]: 0; PR (partial regression) = number of mice [5, 6]: 0; TFS (Tumor Free Survival) = number of complete regressions recorded up to Group Day End [5, 6]: 0
CC(C)C[C@@H]1NCCN([C@@H](CC(C)C)C(=O)N2CCC3(C[C@@H]2C)OCC(CN2CCCC2)CO3)C1=O (stereo partly drawn) [Compound 248, (S)-1-[(S)-1-({(S)-8-Methyl-3-[(1-pyrrolidinyl)methyl]-1,5-dioxa-9-aza-9-spiro[5.5]un-decyl}carbonyl)-3-methylbutyl]-3-isobutyl-2-piperazinone]	178 ± 27	19	0.1064	0.0958	0.0916	0.0511	0.0499	0.0288	0.0068	0.0041	0.1159	0.1248	0.1389	0.1093	0.1794	0.2398	0.2964	0.2569	tumor-free	Tumor Size day 37 [1, 7]: 586 ± 82 mm^3; T/C [1, 7]: 62.6%; Tumor Size day 37 ([1]; 6 mg/kg, QD): 238 ± 37 mm^3; T/C ([1]; 6 mg/kg, QD): 25.4%
